In patent US5366966A, “Compound UCE6” (Kyowa Hakko Kogyo Co., Ltd., priority 1992, dated 1994):

Assays:
HeLaS3 cells = experiment: Inhibition on the Growth of HeLaS3 Cells (Neutral Red staining); format: cell-based; settings: Homo sapiens, HeLa S3, 72 hours at 37° C., absorbance at 550 nm, read-out: IC50 (the concentration of the test compound capable of inhibiting the growth of the cells at a ratio of 50%)
Procedure: (A) Inhibition on the Growth of HeLaS3 Cells
0.1 ml portions of a 3×10^4 cell/ml suspension of HeLaS3 cells [American Type Culture Collection (ATCC) CCL2.2]. in Minimum Essential Medium (MEM) medium (mfd. by Nissui Seiyaku) containing 10% of calf fetal serum and 2 mM of glutamine (hereinafter referred to as the medium A) were pipetted into a 96-well microtiter plate. 0.05 ml of the test compound optionally diluted with the medium A is added to each well, followed by incubating in a carbon dioxide gas incubator at 37° C. for 72 hours. After removing supernatant the culture 0.1 ml of the medium A containing 0.02% of Neutral Red is added to the residue. The cells are cultivated in the carbon dioxide gas incubator at 37° C. for additional one hour to thereby stain the cells. After removing the supernatant of culture, the residue was washed with saline once. The pigment is extracted with 0.001 N hydrochloric acid/30% ethanol and the absorbance at 550 nm is measured with a microplate reader. Then IC50 (the concentration of the test compound capable of inhibiting the growth of the cells at a ratio of 50%) is calculated on the basis of the comparison between the absorbance of untreated cells and that of the test compound-treated cells (at various concentration of the test compound).

Solubility = format: physicochemical

In the case of `Cc1c(O)cc2c(c1O)C(=O)c1c(cc3cc(O)cc(CC(=O)CC(C)O)c3c1O)C2=O` (stereo not drawn) [UCE6], the IC50 (HeLaS3 cells) is reported as 18 nM, the Solubility (Solubility; in dimethylsulfoxide (DMSO), N,N-dimethylformamide and pyridine) is reported as “soluble” and the Solubility (Solubility; in water, ethanol, methanol, ethyl acetate and chloroform) is reported as “hardly soluble”.
